Structures can show the parent of a compound that is named as a salt. Where two headings read alike, the source gives them in different places. Square brackets hold non-standard residues; d marks the D form. Peptide text beside a SMILES is read from it. * marks the point of attachment. pNA = O=[N+]([O-])c1ccc(N*)cc1; 4Abz = Nc1ccc(C(=O)O)cc1; Tfa = O=C(C(F)(F)F)*; NHPh = c1ccc(N*)cc1
How the values were obtained:
leucocytal elastase [1] = molecular target: T1, leucocytal elastase (Homo sapiens, UniProt P08246); experiment: I50 on leucocytal elastase, hydrolysis of succinyl-tri-alanine-paranitroanilide at 10^-3 M; assay type: biochemical; settings: 25° C., TRIS 0.2 M buffer, pH 8; substrate 10^-3 M; in the presence of 50 % dimethylformamide (footnote); read-out: T 50^ (b) leucocytal
T1 construct: This latter was purified according to the Travis method; from tissue
T1 sequence (P08246 30-267): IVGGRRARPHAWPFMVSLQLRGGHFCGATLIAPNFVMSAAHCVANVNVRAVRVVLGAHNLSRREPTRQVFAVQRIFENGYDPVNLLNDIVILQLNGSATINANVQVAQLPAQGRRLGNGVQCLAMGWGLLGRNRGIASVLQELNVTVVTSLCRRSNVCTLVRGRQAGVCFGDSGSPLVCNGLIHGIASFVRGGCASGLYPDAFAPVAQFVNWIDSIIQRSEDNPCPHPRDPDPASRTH
From the text: (§1) This latter was purified according to the Travis method (Baugh, R. J. and Travis, J. (1976), Biochemistry, 15, 4, 836). The method of study used is the conventional method of Dixon (Dixon, M., (1953), Biochemical Journal, 55, 1970) for measuring the inhibition constants KI of the compounds of the invention with regard to the hydrolysis reactions of the succinyl-tri-L-alanine-paranitroanilide catalysed by the two above elastases (Bieth J., Spiess B. and Wermuth C. G. (1974) Biochemical Medicine, 11, 350). In certain cases (leucocytal elastase) the inhibitory power of the compounds studied was measured by means of the I50 concentration of these compounds inducing 50% inhibition of the hydrolysis of the succinyl-tri-alanine-paranitroanilide at a 10^-3 M concentration catalysed by the enzyme. […] All the measurements were made at 25° C. in a 0.2 Molar buffer solution of tri-hydroxymethyl-aminomethane at pH 8.

[2] = molecular target: T2, porcine pancreatic elastase (Sus scrofa, UniProt P00772); experiment: Inhibition constant KI (Dixon method) on pancreatic elastase, hydrolysis of succinyl-tri-L-alanine-paranitroanilide; assay type: biochemical; settings: 25° C., TRIS 0.2 M buffer, pH 8; absence of any organic solvent; read-out: K T^ (a) pancreatic
T2 sequence (P00772 27-266): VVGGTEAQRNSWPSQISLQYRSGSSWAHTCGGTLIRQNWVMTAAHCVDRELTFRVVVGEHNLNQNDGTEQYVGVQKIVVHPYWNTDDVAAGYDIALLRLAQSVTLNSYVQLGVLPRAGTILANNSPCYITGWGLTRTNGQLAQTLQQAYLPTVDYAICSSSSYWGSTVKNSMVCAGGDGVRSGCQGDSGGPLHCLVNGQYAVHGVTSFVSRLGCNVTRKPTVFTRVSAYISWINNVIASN
From the text: as §1
(§2) Table E below lists the results obtained for the compounds of formula (I) as well as the reference compounds (A), acetyl-L-prolyl-L-alanyl-L-prolyl-L-alaninal, for the pancreatic elastase (Thompson, R. C., Biochemistry (1973), 17, 1, 47) and (B), oleic acid, for the leucocytal elastase (Ashe, B. M. and Zimmerman, M. (1977), Biochem. Biophys. Res. Comm., 75, 194).

[3] = molecular target: T2, porcine pancreatic elastase; settings: reference compound, Thompson, Biochemistry (1973); read-out: K T^ (a) pancreatic; cited from earlier work
leucocytal elastase [4] = molecular target: T1, leucocytal elastase; settings: reference compound, Ashe and Zimmerman (1977); read-out: K T^ (a) leucocytal; cited from earlier work
mice = experiment: Intravenous toxicity on mice; assay type: in vivo; settings: intravenously, 20, 40 and 80 mg/kg, solution in physiological serum containing 10% DMF
Procedure: Furthermore, the toxicity of the compounds of the invention were studied intravenously on mice. More exactly, these compounds were tested in the form of a solution in physiological serum containing 10% DMF.
It is to be noted that it was not possible to use doses higher than those indicated above, because of the solubility limit of compound 3.

leucocytal elastase [5] = molecular target: T1, leucocytal elastase; experiment: Inhibition constant KI (Dixon method) on leucocytal elastase, hydrolysis of succinyl-tri-L-alanine-paranitroanilide; assay type: biochemical; settings: 25° C., TRIS 0.2 M buffer, pH 8; absence of any organic solvent; read-out: K T^ (a) leucocytal
From the text: as §1, §2

SMILES	IC50 (leucocytal elastase [1]) [nM]	Ki [2] [nM]	Ki (leucocytal elastase [5]) [nM]	Ki [3] [nM]	Ki (leucocytal elastase [4]) [nM]	mortality (mice)
CC(NC(=O)C(F)(F)F)C(=O)NC(C(=O)Nc1ccccc1)C(F)(F)F (mixture of isomers) [compound 17]	400000	270	–	–	–	–
CC(=O)N1CCC[C@H]1C(=O)N[C@@H](C)C(=O)N1CCC[C@H]1C(=O)N[C@@H](C)C=O [A, acetyl-L-prolyl-L-alanyl-L-prolyl-L-alaninal] (Ac-PAPA-aldehyde)	–	–	–	800	–	–
CCCCCCCC/C=C\CCCCCCCC(=O)O [B, oleic acid]	–	–	–	–	9000	–
C[C@H](NC(=O)[C@H](C)NC(=O)C(F)(F)F)C(=O)Nc1ccc([N+](=O)[O-])cc1 [Code number 3, N-trifluoroacetyl-L-alanyl-L-alanyl-p-nitroanilide] (Tfa-Ala-Ala-pNA)	78000	120	–	–	–	no case of mortality was observed
C[C@H](NC(=O)[C@H](C)NC(=O)C(F)(F)F)C(=O)Nc1ccccc1 [compound 1] (Tfa-Ala-Ala-NHPh)	250000	250	–	–	–	–
C[C@H](NC(=O)[C@H](C)NC(=O)C(F)(F)F)C(=O)Nc1ccc(Cl)cc1 [compound 2]	100000	110	–	–	–	–
C[C@H](NC(=O)[C@H](C)NC(=O)C(F)(F)F)C(=O)Nc1cccc([N+](=O)[O-])c1 [compound 4]	150000	380	–	–	–	–
C[C@H](NC(=O)[C@H](C)NC(=O)C(F)(F)F)C(=O)Nc1cccc(C(F)(F)F)c1 [compound 6]	120000	800	–	–	–	–
C[C@H](NC(=O)[C@H](C)NC(=O)C(F)(F)F)C(=O)Nc1ccc(C#N)cc1 [compound 9]	100000	110	–	–	–	–
C[C@H](NC(=O)[C@H](C)NC(=O)C(F)(F)F)C(=O)Nc1ccc(C(=O)O)cc1 [compound 10] (Tfa-Ala-Ala-[4Abz]-OH)	470000	200	–	–	–	–
C[C@H](NC(=O)[C@H](CCCCN)NC(=O)C(F)(F)F)C(=O)Nc1ccccc1 [compound 11] (Tfa-Lys-Ala-NHPh)	150000	40	44000	–	–	–
C[C@H](NC(=O)C(F)(F)F)C(=O)N[C@@H](CCCCN)C(=O)Nc1ccc(C(F)(F)F)cc1 [compound 19]	150000	400	–	–	–	–

Now from value to molecule, other results behind:

IC50 (leucocytal elastase [1]) [nM]	Ki [2] [nM]	Ki (leucocytal elastase [5]) [nM]	SMILES	Ki [3] [nM]	Ki (leucocytal elastase [4]) [nM]	mortality (mice)
56000	90	–	C[C@H](NC(=O)[C@H](C)NC(=O)C(F)(F)F)C(=O)Nc1ccc(C(F)(F)F)cc1 [compound 5]	–	–	–
30000	290	–	COc1ccc(NC(=O)[C@H](C)NC(=O)[C@H](C)NC(=O)C(F)(F)F)cc1 [compound 7]	–	–	–
12000	550	–	CC(C)c1ccc(NC(=O)[C@H](C)NC(=O)[C@H](C)NC(=O)C(F)(F)F)cc1 [compound 8]	–	–	–
35000	25	3000	C[C@H](NC(=O)[C@H](CCCCN)NC(=O)C(F)(F)F)C(=O)Nc1ccc(C(F)(F)F)cc1 [compound 12]	–	–	–
50000	30	14000	Cc1ccc(NC(=O)[C@H](C)NC(=O)[C@H](CCCCN)NC(=O)C(F)(F)F)cc1 [compound 13]	–	–	–
5700	50	700	CC(C)c1ccc(NC(=O)[C@H](C)NC(=O)[C@H](CCCCN)NC(=O)C(F)(F)F)cc1 [compound 14]	–	–	–
9000	32	2500	CC(=O)c1ccc(NC(=O)[C@H](C)NC(=O)[C@H](CCCCN)NC(=O)C(F)(F)F)cc1 [compound 16]	–	–	–
